Broadly, the IC50 is the point on the concentration scale where inhibition reaches its midpoint.

Assay [1] relates to MDA-MB-231. Briefly: Antiproliferative activity against human MDA-MB-231 cells assessed as inhibition of cell growth measured after 48 hrs by SRB assay. In kind it is functional, cell-based. The conditions noted are these: MDA-MB-231, 48 h. For orientation: In SRB staining, fixed cells bind dye roughly in proportion to their protein.
Assay [2] has as its system A549. Kind of assay: Antiproliferative activity against human A549 cells assessed as inhibition of cell growth measured after 48 hrs by SRB assay. The conditions noted are these: A549, 48 h. Type of assay: functional, cell-based.
For assay [3], the system named is MDA-MB-231. Kind of assay: Induction of apoptosis in human MDA-MB-231 cells assessed as proportion of viable cells at 1 ug measured after 24 hrs by Annexin V-FITC/propidium iodide staining based flow cytometry (reference value: 99%). The note with it: dose 1 µg. Type of assay: functional. (In general: Flow cytometry measures light scatter and fluorescence of single cells or particles in a stream.)

Assay [4] deals with MDA-MB-231. Briefly: Induction of apoptosis in human MDA-MB-231 cells assessed as proportion of early apoptotic cells at 1 ug measured after 24 hrs by Annexin V-FITC/propidium iodide staining based flow cytometry (reference value: 0.2%). In kind it is functional. The note with it: dose 1 µg.
Assay [5] concerns MDA-MB-231. Kind of assay: Induction of apoptosis in human MDA-MB-231 cells assessed as proportion of late apoptotic cells at 1 ug measured after 24 hrs by Annexin V-FITC/propidium iodide staining based flow cytometry (reference value: 0.5%). In kind it is functional. The conditions noted are these: dose 1 µg.
For assay [6], the system named is MDA-MB-231. Briefly: Induction of apoptosis in human MDA-MB-231 cells assessed as proportion of necrotic cells at 1 ug measured after 24 hrs by Annexin V-FITC/propidium iodide staining based flow cytometry (reference value: 0.2%). Type of assay: functional. The note with it: dose 1 µg.

With `COc1cccc2c1C(=O)c1c(O)c3c(c(O)c1C2=O)C[C@@](O)(C(=O)CO)C[C@@H]3O[C@H]1C[C@H](N)[C@H](O)[C@H](C)O1` [DOXORUBICIN], the half-maximal inhibitory concentration (IC50) in assay [1] amounted to 5120 nM; in assay [2], 630 nM. Also, the Activity is recorded as 13.7% in assay [3], 0.1% in assay [4], 6.2% in assay [5] and 80.1% in assay [6].

The values are drawn from ChEMBL document CHEMBL4680139, “Antiproliferative activity of diarylnaphthylpyrrolidine derivative via dual target inhibition” (Eur J Med Chem, 2020).
